Values of other authors, collected in patent US20190255075A1, “TREATMENT OF PROSTATE CANCER” (priority 2018, published 2019).

What was measured:
[1] = system: hormone refractory prostate cancer; conditions: single agent
[2] = system: prostate cancer cells; conditions: sirolimus used alone

CO[C@H]1C[C@@H]2CC[C@@H](C)[C@@](O)(O2)C(=O)C(=O)N2CCCC[C@H]2C(=O)O[C@H]([C@H](C)C[C@@H]2CC[C@@H](O)[C@H](OC)C2)CC(=O)[C@H](C)/C=C(\C)[C@@H](O)[C@@H](OC)C(=O)[C@H](C)C[C@H](C)/C=C/C=C/C=C/1C [Sirolimus, sirolimus]
patients with positive outcomes ([1]; of twelve evaluable patients with hormone refractory prostate cancer): two
decrease in PSA ([1]; one of the two responding patients, with partial radiographic response): 50%
effect on prostate cancer cells [2]: limited effects
